Experimental data taken from ChEMBL document CHEMBL2311321, “Alkaloid constituents from flower buds and leaves of sacred lotus (Nelumbo nucifera, Nymphaeaceae) with melanogenesis inhibitory activity in B16 melanoma cells” (Bioorg Med Chem, 2013).

How the values were obtained:
[1] = Inhibition of melanogenesis in mouse B16-4A5 cells at 3 uM after 72 hrs by spectrophotometry; format: functional; details: B16-4A5, 72 h
[2] = Inhibition of melanogenesis in mouse B16-4A5 cells at 100 uM after 72 hrs by spectrophotometry; format: functional; details: B16-4A5, 72 h
[3] = Inhibition of melanogenesis in mouse B16-4A5 cells at 1 uM after 72 hrs by spectrophotometry; format: functional; details: B16-4A5, 72 h
[4] = Inhibition of melanogenesis in mouse B16-4A5 cells at 30 uM after 72 hrs by spectrophotometry; format: functional; details: B16-4A5, 72 h
[5] = Cytotoxicity against mouse B16-4A5 cells assessed as cell viability at 100 uM after 70 hrs by WST-8 assay
[6] = Inhibition of melanogenesis in mouse B16-4A5 cells after 72 hrs by spectrophotometry; format: functional, cell-based
[7] = Inhibition of melanogenesis in mouse B16-4A5 cells at 10 uM after 72 hrs by spectrophotometry; format: functional; details: B16-4A5, 72 h

Row | SMILES | inhibition at 3 µM [1] [%] | inhibition at 100 µM [2] [%] | inhibition at 1 µM [3] [%] | inhibition at 30 µM [4] [%] | viability at 70 h, 100 µM [5] [%] | IC50 [6] [µM] | inhibition at 10 µM [7] [%]
1 | COc1cc2c3c(cc4ccccc4c3c1OC)N(C)CC2 [DEHYDRONUCIFERINE] | 4.8 | 78.4 | 14.5 | 8 | 77 | 85 | 11.8
2 | COc1cc2c3c(c1O)-c1ccccc1C[C@H]3N(C)CC2 | 11.1 |  | -2.6 | 65.9 | 39.7 | 19.3 | 27.3
3 | COc1c(O)cc2c3c1-c1ccccc1C[C@H]3NCC2 [ASIMILOBINE] |  |  |  |  | 46 |  | 
4 | COc1cc2c3c(c1OC)-c1ccccc1C[C@H]3NCC2 | 16.2 | 91.9 | 5.8 | 17.6 | 82 | 62.9 | 12.1
5 | COc1cc2c3c(c1)-c1ccccc1CC3N(C)CC2 (stereo unspecified) | 54.7 |  | 39.1 | 82.5 |  | 2 | 76
6 | COc1c(O)cc2c3c1-c1ccccc1C[C@@H]3NCC2 [ASIMILOBINE] | -7.4 | 36.2 | 7.4 | 39.7 |  | > 100 | 12.1
7 | COc1cc2c3c(c1OC)-c1ccccc1C[C@H]3[N+](C)([O-])CC2 (stereo partly specified) | -3.2 | 88.4 | -4.8 | 33.7 | 82 | 43 | -0.1
8 | CN1CCc2ccccc2C1Cc1ccccc1 (stereo unspecified) | 40.5 | 75.4 | 24.5 | 51.8 | 77 | 5 | 59.7
